Patent publication US8143290B2, “Chemical compounds 572” (AstraZeneca AB, priority 2006, dated 2012)

Molecular target: T1, recombinant human GR (Homo sapiens, UniProt P04150)
T1 construct: purchased Panvera/Invitrogen P2812 (kit P2893)
T1 sequence (P04150 1-777): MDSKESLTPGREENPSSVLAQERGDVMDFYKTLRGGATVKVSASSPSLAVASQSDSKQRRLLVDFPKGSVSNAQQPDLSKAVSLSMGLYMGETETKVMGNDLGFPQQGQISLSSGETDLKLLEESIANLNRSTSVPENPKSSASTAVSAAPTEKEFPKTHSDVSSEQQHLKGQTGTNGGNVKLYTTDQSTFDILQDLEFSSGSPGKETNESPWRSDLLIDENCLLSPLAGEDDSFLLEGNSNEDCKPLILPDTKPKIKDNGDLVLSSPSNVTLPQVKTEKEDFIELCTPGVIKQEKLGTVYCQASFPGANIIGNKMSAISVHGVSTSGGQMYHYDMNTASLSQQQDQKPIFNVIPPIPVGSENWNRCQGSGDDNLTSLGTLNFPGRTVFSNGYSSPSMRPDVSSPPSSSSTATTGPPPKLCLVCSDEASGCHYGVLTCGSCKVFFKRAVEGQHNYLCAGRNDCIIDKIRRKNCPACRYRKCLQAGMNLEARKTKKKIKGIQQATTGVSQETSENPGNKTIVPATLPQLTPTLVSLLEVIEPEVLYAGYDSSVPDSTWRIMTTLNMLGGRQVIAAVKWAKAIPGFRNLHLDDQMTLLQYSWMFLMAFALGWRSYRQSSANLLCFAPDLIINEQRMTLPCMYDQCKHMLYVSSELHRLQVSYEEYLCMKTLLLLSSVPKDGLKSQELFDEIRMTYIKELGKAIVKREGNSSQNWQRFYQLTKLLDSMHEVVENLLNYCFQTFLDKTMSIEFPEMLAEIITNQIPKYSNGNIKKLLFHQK
Test: Human Glucocorticoid Receptor (GR) Assay, fluorescence polarization
Type: binding
Conditions: GS Red tracer, incubated 2 h at r.t., XLfit model 205, read-out: GRhuFL_FP_v2 Mean IC50
Method in brief: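 After 2 h dark incubation at r.t., polarization reported displacement of the GS Red tracer from recombinant GR, in buffer with phosphate, molybdate, EDTA, DTT and Stabilizing Peptide. Controls: dexamethasone (100%) and DMSO (0%).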

Structure (SMILES)	IC50
Cc1cc(C)c([C@@H](Oc2ccc3c(cnn3-c3ccc(F)cc3)c2)[C@H](C)NC(=O)C(C)(C)C)cc1C (stereo in doubt) [Example 267, N-[(1R,2S)-1-[1-(4-fluorophenyl)indazol-5-yl]oxy-1-(2,4,5-trimethylphenyl)propan-2-yl]-2,2-dimethyl-propanamide]	3.7 nM
COCc1ccc(C(=O)N[C@@H](C)[C@H](Oc2ccc3c(cnn3-c3ccc(F)cc3)c2)c2cccc(OC)c2)s1 [Example 299, N-[(1R,2S)-1-[1-(4-fluorophenyl)indazol-5-yl]oxy-1-(3-methoxyphenyl)propan-2-yl]-5-(methoxymethyl)thiophene-2-carboxamide]	3.1 nM
Cc1ccc([C@@H](Oc2ccc3c(cnn3-c3ccc(F)cc3)c2)[C@H](C)NC(=O)C(C)(C)C)cc1C [Example 171, N-[(1R,2S)-1-(3,4-dimethylphenyl)-1-[1-(4-fluorophenyl)indazol-5-yl]oxy-propan-2-yl]-2,2-dimethyl-propanamide]	5.6 nM
COc1cccc([C@@H](Oc2ccc3c(cnn3-c3ccc(F)cc3)c2)[C@H](C)NC(=O)c2ccc(S(C)(=O)=O)s2)c1 [Example 273, N-[(1R,2S)-1-[1-(4-fluorophenyl)indazol-5-yl]oxy-1-(3-methoxyphenyl)propan-2-yl]-5-methylsulfonyl-thiophene-2-carboxamide]	7.9 nM
COc1cccc([C@@H](Oc2ccc3c(cnn3-c3ccc(F)cc3)c2)[C@H](C)NC(=O)c2ccsc2)c1 [Example 134, N-[(1R,2S)-1-[1-(4-fluorophenyl)indazol-5-yl]oxy-1-(3-methoxyphenyl)propan-2-yl]thiophene-3-carboxamide]	3.6 nM
COc1cccc([C@@H](Oc2ccc3c(cnn3-c3ccc(F)cc3)c2)[C@H](C)NC(=O)[C@@H](C)O)c1 [Example 57, (2R)-N-[(1R,2S)-1-[1-(4-fluorophenyl)indazol-5-yl]oxy-1-(3-methoxyphenyl)propan-2-yl]-2-hydroxy-propanamide]	4.1 nM
COc1cccc([C@@H](Oc2ccc3c(cnn3-c3ccc(F)cc3)c2)[C@H](C)NC(=O)c2ccncn2)c1 [Example 88, N-((1R,2S)-1-(1-(4-fluorophenyl)-1H-indazol-5-yloxy)-1-(3-methoxyphenyl)propan-2-yl)pyrimidine-4-carboxamide]	3.2 nM
C[C@H](NC(=O)CO)[C@@H](Cc1ccccc1)Oc1ccc2c(cnn2-c2ccc(F)cc2)c1 [Example 74, N-[(2S,3R)-3-[1-(4-Fluorophenyl)indazol-5-yl]oxy-4-phenyl-butan-2-yl]-2-hydroxy-acetamide]	3.7 nM
CC(C)(C)C(=O)NC(C(Oc1ccc2c(cnn2-c2ccc(F)cc2)c1)c1ccccc1)C(F)(F)F (single isomer, unassigned) [Example 147D1E2, N-(1,1,1-trifluoro-3-(1-(4-fluorophenyl)-1H-indazol-5-yloxy)-3-phenylpropan-2-yl)pivalamide]	24 nM
C[C@H](NC(=O)C(F)(F)F)[C@H](Oc1ccc2c(cnn2-c2ccc(F)cc2)c1)c1ccc(SC2CC2)cc1 [Example 15, N-[(1R,2S)-1-(4-cyclopropylsulfanylphenyl)-1-[1-(4-fluorophenyl)indazol-5-yl]oxy-propan-2-yl]-2,2,2-trifluoro-acetamide]	6.8 nM
Cc1ccc([C@@H](Oc2ccc3c(cnn3-c3ccc(F)cc3)c2)[C@H](C)NC(=O)C(F)(F)F)cc1F [Example 151, 2,2,2-trifluoro-N-[(1R,2S)-1-(3-fluoro-4-methyl-phenyl)-1-[1-(4-fluorophenyl)indazol-5-yl]oxy-propan-2-yl]acetamide]	32 nM
C[C@H](NC(=O)C1(C)CC1)[C@H](Oc1ccc2c(cnn2-c2ccc(F)cc2)c1)c1ccc2c(c1)OCCO2 [Example 124, N-((1R,2S)-1-(2,3-dihydrobenzo[b][1,4]dioxin-6-yl)-1-(1-(4-fluorophenyl)-1H-indazol-5-yloxy)propan-2-yl)-1-methylcyclopropanecarboxamide]	2.7 nM
CC(C)(C)C(=O)NC(C(Oc1ccc2c(cnn2-c2ccc(F)cc2)c1)c1ccccc1)C(F)(F)F (single isomer, unassigned) [Example 147D1E1, N-(1,1,1-trifluoro-3-(1-(4-fluorophenyl)-1H-indazol-5-yloxy)-3-phenylpropan-2-yl)pivalamide]	97 nM
COc1cccc([C@@H](Oc2ccc3c(cnn3-c3ccc(F)cc3)c2)[C@H](C)NC(=O)C2CCN(C(=O)OC(C)(C)C)C2)c1 (stereo partly drawn) [Example 301, tert-butyl 3-((1R,2S)-1-(1-(4-fluorophenyl)-1H-indazol-5-yloxy)-1-(3-methoxyphenyl)propan-2-ylcarbamoyl)pyrrolidine-1-carboxylate]	5.2 nM
COCC(=O)N[C@@H](C)[C@H](Oc1ccc2c(cnn2-c2ccc(F)cc2)c1)c1ccc(OC)c(F)c1 [Example 262, N-[(1R,2S)-1-(3-fluoro-4-methoxy-phenyl)-1-[1-(4-fluorophenyl)indazol-5-yl]oxy-propan-2-yl]-2-methoxy-acetamide]	4.5 nM
Cc1cnc(C(=O)N[C@@H](C)[C@H](Oc2ccc3c(cnn3-c3ccc(F)cc3)c2)c2cccc(Cl)c2)s1 [Example 199, N-[(1R,2S)-1-(3-chlorophenyl)-1-[1-(4-fluorophenyl)indazol-5-yl]oxy-propan-2-yl]-5-methyl-1,3-thiazole-2-carboxamide]	7.4 nM
CC(=O)N[C@@H](C)[C@H](Oc1cc2cnn(-c3ccc(F)cc3)c2cc1Cl)c1ccc(F)cc1 (single isomer, unassigned) [Example 102, N-[(1R*,2S*)-1-[6-chloro-1-(4-fluorophenyl)indazol-5-yl]oxy-1-(4-fluorophenyl)propan-2-yl]acetamide]	2.5 nM
COc1ccc(F)cc1[C@@H](Oc1ccc2c(cnn2-c2ccc(F)cc2)c1)[C@H](C)NC(=O)C(C)(C)C [Example 181, N-[(1R,2S)-1-(5-fluoro-2-methoxy-phenyl)-1-[1-(4-fluorophenyl)indazol-5-yl]oxy-propan-2-yl]-2,2-dimethyl-propanamide]	3.2 nM
COc1cccc([C@@H](Oc2ccc3c(cnn3-c3ccc(F)cc3)c2)[C@H](C)NC(=O)c2cc(C)c(C)s2)c1 [Example 291, N-[(1R,2S)-1-[1-(4-fluorophenyl)indazol-5-yl]oxy-1-(3-methoxyphenyl)propan-2-yl]-4,5-dimethyl-thiophene-2-carboxamide]	6.4 nM
C[C@H](NC(=O)C(F)(F)F)[C@H](Oc1ccc2c(cnn2-c2ccc(F)cc2)c1)c1ccc(Cl)cc1 [Example 160, N-[(1R,2S)-1-(4-chlorophenyl)-1-[1-(4-fluorophenyl)indazol-5-yl]oxy-propan-2-yl]-2,2,2-trifluoro-acetamide]	4.1 nM
Cc1ccc(C)c([C@@H](Oc2ccc3c(cnn3-c3ccc(F)cc3)c2)[C@H](C)NC(=O)c2ncc(C)s2)c1 [Example 196, N-[(1R,2S)-1-(2,5-dimethylphenyl)-1-[1-(4-fluorophenyl)indazol-5-yl]oxy-propan-2-yl]-5-methyl-1,3-thiazole-2-carboxamide]	6.2 nM
C[C@H](NC(=O)C(C)(C)C)[C@@H](Cc1ccccc1)Oc1ccc2c(cnn2-c2ccc(F)cc2)c1 [Example 73, N-[(2S,3R)-3-[1-(4-Fluorophenyl)indazol-5-yl]oxy-4-phenyl-butan-2-yl]-2,2-dimethyl-propanamide]	5.1 nM
